Columns and labels:
[1] = molecular target: T1, human carbonic anhydrase II (hCA II) (Homo sapiens, UniProt P00918); test: esterase assay (p-nitrophenyl acetate hydrolysis, […] nm), Lineweaver-Burk; assay type: biochemical
T1 construct: gene CA2; native enzyme purified from human erythrocytes

[2] = molecular target: T2, human carbonic anhydrase I (hCA I) (Homo sapiens, UniProt P00915); test: as above; assay type: biochemical
T2 construct: gene CA1; native enzyme purified from human erythrocytes
T2 sequence (P00915 2-261): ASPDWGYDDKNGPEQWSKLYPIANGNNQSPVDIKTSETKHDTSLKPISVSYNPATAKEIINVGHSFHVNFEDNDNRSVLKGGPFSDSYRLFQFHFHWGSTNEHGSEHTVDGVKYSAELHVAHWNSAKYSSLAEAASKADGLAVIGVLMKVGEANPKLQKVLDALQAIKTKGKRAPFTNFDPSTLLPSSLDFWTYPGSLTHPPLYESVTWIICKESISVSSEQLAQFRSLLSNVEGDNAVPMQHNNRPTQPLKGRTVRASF

`COc1cc(CNC(=O)CCCC/C=C/C(C)C)ccc1O` [capsaicin, trans-8-methyl-N-vanillyl-6-nonenamide] was tested. Which Ki [1] did it give?
The Ki was 208 ± 14.4 µM.

And the Ki [2]?
The Ki was 696 ± 59.4 µM.
